Experimental data taken from ChEMBL document CHEMBL3997763 (Medchemcomm, 2016).
The source made the active and inactive calls. The calls are words filed in the database; no cut-off is given here.

Tests used:
[1] = molecular target: T1, 3-hydroxy-3-methylglutaryl-coenzyme A reductase (Homo sapiens) (UniProt P04035); assay: Inhibition of human HMG-CoA reductase catalytic domain at 10 uM using HMG-CoA as substrate in presence of NADPH by colorimetric method relative to control
T1 sequence (whole entry): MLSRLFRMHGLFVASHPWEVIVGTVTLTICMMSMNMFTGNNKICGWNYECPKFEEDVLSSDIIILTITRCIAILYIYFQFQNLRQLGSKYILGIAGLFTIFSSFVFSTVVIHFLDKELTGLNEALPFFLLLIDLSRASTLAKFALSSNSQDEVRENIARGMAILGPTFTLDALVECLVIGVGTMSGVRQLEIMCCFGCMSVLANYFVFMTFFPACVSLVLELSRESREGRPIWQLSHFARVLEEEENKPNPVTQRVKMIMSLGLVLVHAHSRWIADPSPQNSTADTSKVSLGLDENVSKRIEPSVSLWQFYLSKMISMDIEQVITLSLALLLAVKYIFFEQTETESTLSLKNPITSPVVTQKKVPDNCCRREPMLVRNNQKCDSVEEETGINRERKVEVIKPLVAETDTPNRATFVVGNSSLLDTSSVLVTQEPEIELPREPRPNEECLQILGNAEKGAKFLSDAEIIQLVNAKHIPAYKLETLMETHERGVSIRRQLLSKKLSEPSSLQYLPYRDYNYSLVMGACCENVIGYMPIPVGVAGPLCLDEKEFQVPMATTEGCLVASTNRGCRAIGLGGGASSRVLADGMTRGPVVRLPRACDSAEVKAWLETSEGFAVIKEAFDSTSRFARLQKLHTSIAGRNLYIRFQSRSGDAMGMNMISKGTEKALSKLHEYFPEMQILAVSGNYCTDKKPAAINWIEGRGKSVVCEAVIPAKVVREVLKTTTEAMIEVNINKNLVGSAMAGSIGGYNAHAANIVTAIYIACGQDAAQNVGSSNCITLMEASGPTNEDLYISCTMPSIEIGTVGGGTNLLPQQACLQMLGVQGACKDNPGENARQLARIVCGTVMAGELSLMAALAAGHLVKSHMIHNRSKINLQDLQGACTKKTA

[2] = molecular target: T1, 3-hydroxy-3-methylglutaryl-coenzyme A reductase (Homo sapiens); assay: Inhibition of human HMG-CoA reductase catalytic domain using HMG-CoA as substrate in presence of NADPH by colorimetric method
[3] = tested on: Rattus norvegicus; assay: Antihyperlipidemic activity in HFD-induced Charles Foster rat chronic hyperlipidemia model assessed as body weight at 100 mg/kg administered via oral gavage for 30 days simultaneously with high fat diet (reference value: 263.52 +/- 21.56 g); assay type: functional
[4] = Apparent oral volume of distribution in Sprague-Dawley rat at 100 mg/kg administered as single dose by LC-MS/MS analysis; assay type: ADME, organism-based; settings: in vivo
[5] = tested on: Rattus norvegicus; assay: Hypolipidemic activity in HFD-induced Charles Foster rat chronic hyperlipidemia model assessed as reduction in liver total cholesterol level at 100 mg/kg administered via oral gavage for 30 days simultaneously with high fat diet by enzymatic method relative to HFD treated vehicle; assay type: functional; settings: 720 h
[6] = organism: Rattus norvegicus; assay: animal or person; assay type: functional; settings: Charles Foster, po, 18 h
Description: Antihyperlipidemic activity in triton WR-1339 induced Charles Foster rat hyperlipidemia model assessed as inhibition of total cholesterol level in serum at 100 mg/kg, po administered simultaneously with triton WR-1339 after 18 hrs by enzymatic method relative to control

[7] = tested on: Rattus norvegicus; assay: Antihyperlipidemic activity in triton WR-1339 induced Charles Foster rat hyperlipidemia model assessed as inhibition of phospholipid level in serum at 150 mg/kg, po administered simultaneously with triton WR-1339 after 18 hrs by enzymatic method relative to control; assay type: functional
[8] = tested on: Rattus norvegicus; assay: Antihyperlipidemic activity in triton WR-1339 induced Charles Foster rat hyperlipidemia model assessed as inhibition of triglyceride level in serum at 150 mg/kg, po administered simultaneously with triton WR-1339 after 18 hrs by enzymatic method relative to control; assay type: functional
[9] = tested on: Rattus norvegicus; assay: Toxicity in HFD-induced Charles Foster rat chronic hyperlipidemia model assessed as food intake at 100 mg/kg administered via oral gavage for 30 days simultaneously with high fat diet (reference value: 9.81 +/- 0.61 g/day); assay type: organism-based; settings: in vivo, 720 h
[10] = tested on: Rattus norvegicus; assay: Hypolipidemic activity in HFD-induced Charles Foster rat assessed as increase in human I125-LDL binding to rat liver plasma membrane at 100 mg/kg administered as single dose via oral gavage for 30 days simultaneously with high fat diet by minigamma counting; assay type: functional, organism-based
[11] = tested on: Rattus norvegicus; assay: Hypolipidemic activity in HFD-induced Charles Foster rat assessed as reduction in serum VLDL-TG at 100 mg/kg administered as single dose via oral gavage for 30 days simultaneously with high fat diet; assay type: functional, organism-based
[12] = tested on: Rattus norvegicus; assay: Hypolipidemic activity in HFD-induced Charles Foster rat assessed as inhibition of hepatic HMG-CoA reductase activity by measuring […] at 100 mg/kg administered as single dose via oral gavage for 30 days simultaneously with high fat diet by colorimetric method; assay type: functional, organism-based
[13] = tested on: Rattus norvegicus; assay: Antihyperlipidemic activity in triton WR-1339 induced Charles Foster rat hyperlipidemia model assessed as inhibition of triglyceride level in serum at 50 mg/kg, po administered simultaneously with triton WR-1339 after 18 hrs by enzymatic method relative to control; assay type: functional
[14] = tested on: Rattus norvegicus; assay: Antihyperlipidemic activity in po dosed triton WR-1339 induced Charles Foster rat hyperlipidemia model assessed as increase in HDL-C level in serum administered simultaneously with triton WR-1339 after 18 hrs by enzymatic method relative to control; assay type: functional, organism-based
[15] = tested on: Rattus norvegicus; assay: Hypolipidemic activity in HFD-induced Charles Foster rat assessed as reduction in serum LDL-TG at 100 mg/kg administered as single dose via oral gavage for 30 days simultaneously with high fat diet; assay type: functional, organism-based
[16] = tested on: Rattus norvegicus; assay: Antihyperlipidemic activity in po dosed triton WR-1339 induced Charles Foster rat hyperlipidemia model assessed as inhibition of triglyceride level in serum administered simultaneously with triton WR-1339 after 18 hrs by enzymatic method relative to control; assay type: functional, organism-based
[17] = tested on: Rattus norvegicus; assay: Hypolipidemic activity in HFD-induced Charles Foster rat assessed as increase in lipolytic activity of LPL in liver at 100 mg/kg administered as single dose via oral gavage for 30 days simultaneously with high fat diet; assay type: functional, organism-based
[18] = Stability of the compound in simulated gastric fluid at 10 uM up to 60 mins by LC-MS/MS analysis
[19] = tested on: Rattus norvegicus; assay: Hypolipidemic activity in HFD-induced Charles Foster rat chronic hyperlipidemia model assessed as reduction in serum triglyceride level at 100 mg/kg administered via oral gavage for 30 days simultaneously with high fat diet by enzymatic method relative to HFD treated vehicle; assay type: functional; settings: 720 h
[20] = tested on: Rattus norvegicus; assay: Antihyperlipidemic activity in triton WR-1339 induced Charles Foster rat hyperlipidemia model assessed as increase in HDL-C level in serum at 150 mg/kg, po administered simultaneously with triton WR-1339 after 18 hrs by enzymatic method relative to control; assay type: functional
[21] = tested on: Rattus norvegicus; assay: Hypolipidemic activity in HFD-induced Charles Foster rat chronic hyperlipidemia model assessed as reduction in serum ALT level at 100 mg/kg administered via oral gavage for 30 days simultaneously with high fat diet by colorimetric method relative to HFD treated vehicle; assay type: functional; settings: 720 h
[22] = tested on: Rattus norvegicus; assay: Hypolipidemic activity in HFD-induced Charles Foster rat assessed as increase in LCAT activity at 100 mg/kg administered as single dose via oral gavage for 30 days simultaneously with high fat diet by photometric method; assay type: functional, organism-based
[23] = Stability of the compound in simulated intestinal fluid at 10 uM up to 120 mins by LC-MS/MS analysis

## COc1ccc(-c2cc3cc(C(c4c[nH]c5ccccc45)c4c[nH]c5ccccc45)cc(C(C)(C)C)c3oc2=O)cc1OC
[1]
  inhibition: 56%
[2]
  inhibition: Dose-dependent effect
[3]
  Activity: 228.19 g
[4]
  Vd/F: 684 L/kg
[5]
  inhibition in vivo at 100 mg/kg: 27%
[6]
  inhibition in vivo at 100 mg/kg: 32%
[7]
  inhibition in vivo at 150 mg/kg: 35%
[8]
  inhibition in vivo at 150 mg/kg: 33%
[9]
  Activity: 9.63 g/day
[10]
  Activity: Active
[11]
  Activity: Active
[12]
  inhibition: Active
[13]
  inhibition in vivo at 50 mg/kg: 20%
[14]
  Activity: Dose-dependent effect
[15]
  Activity: Active
[16]
  inhibition: Dose-dependent effect
[17]
  Activity: Active
[18]
  Stability: Stable
[19]
  inhibition in vivo at 100 mg/kg: 26%
[20]
  Activity: 25%
[21]
  inhibition in vivo at 100 mg/kg: 26%
[22]
  Activity: Active
[23]
  Stability: Stable
